Measured values as given in patent US4618622A, “Sulfonates of hydroxycoumarins” (priority 1982, dated 1986).

Experiments:
[1] = test system: reserpine-induced hypothermia; assay: Antidepressant action: inhibition of reserpine-induced hypothermia (reserpine test); type: in vivo, mouse (male, Swiss strain); conditions: oral administration, 60 minutes before reserpine 2.15 mg/kg s.c.; mouse; temperature 2 hours after; read-out: Antidepressant action (mouse) ED50
Method: The test substances are administered orally, 60 minutes before the reserpine.

Monoaminoxidase A [2] = target: T1, Monoaminoxidase A (Rattus norvegicus, UniProt P21396); assay: biochemical; conditions: read-out: Monoaminoxidase inhibition IC50
T1 sequence (P21396 1-526): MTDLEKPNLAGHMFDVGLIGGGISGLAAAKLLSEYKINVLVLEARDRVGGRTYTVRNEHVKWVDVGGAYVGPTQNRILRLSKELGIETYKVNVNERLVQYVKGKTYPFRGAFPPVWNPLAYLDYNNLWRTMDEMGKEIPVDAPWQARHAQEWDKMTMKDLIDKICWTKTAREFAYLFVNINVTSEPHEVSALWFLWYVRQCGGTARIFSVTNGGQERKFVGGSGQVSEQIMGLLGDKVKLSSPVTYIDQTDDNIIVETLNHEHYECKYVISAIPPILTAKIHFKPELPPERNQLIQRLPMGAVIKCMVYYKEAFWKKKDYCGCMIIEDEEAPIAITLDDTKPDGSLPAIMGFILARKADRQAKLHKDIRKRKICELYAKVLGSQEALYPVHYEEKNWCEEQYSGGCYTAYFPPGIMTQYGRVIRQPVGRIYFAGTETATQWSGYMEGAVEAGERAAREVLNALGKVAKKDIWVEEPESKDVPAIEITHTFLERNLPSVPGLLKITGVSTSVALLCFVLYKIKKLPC
Method: Monoaminoxidase A is determined in dilute rat brain homogenate to which
1. various concentrations of the test substances and
2. ^14 C-tryptamine in a concentration of 0.4 μmol/liter are added. This mixture is incubated at 37° C. for 20 minutes, after which the reaction is terminated by means of aqueous 0.1N HCl, and the products are extracted with toluene scintillator (PPO+POPOP in toluene) and then determined. The blank value is determined in similar mixtures for an incubation time of t=0 minutes.
The mean inhibitory concentration (IC50) is calculated from the inhibitory values determined, in comparison with the control, at the various inhibitor concentrations, by means of a linear regression after logit-log transformation.

Monoaminoxidase A [3] = target: T1, Monoaminoxidase A; conditions: in words, known for the comparative substance; cited from earlier work

**Q.** Which ED50 [1] does the source give for C#CCN(C)Cc1ccccc1 [Pargyline, reference compound] here?
**A.** 48 mg/kg

**Q.** What about the IC50 (Monoaminoxidase A [2]) of the same compound?
**A.** 2000 nM

**Q.** What about the “action mechanism (known)” value (Monoaminoxidase A [3]) of the same compound?
**A.** inhibition of monoaminoxidase A
